This is an account of results in paper PMC11381475, “Biopharmaceutical profiling of anti-infective sanggenons from Morus alba root bark for inhalation administration” (International Journal of Pharmaceutics: X, 2024).

What is called Papp is the rate of passage across a membrane or cell layer, normalised by area and donor concentration.

The subject of data set [1] is lung epithelial monolayers. The settings on record: cited from earlier work.
Data set [2] has as its system Calu-3 monolayer.

Take `C[C@H]1[C@H](NC(=O)/C(=N\OC(C)(C)C(=O)O)c2csc(N)n2)C(=O)N1S(=O)(=O)O` [aztreonam]: in data set [1], the Papp is 0.07 ± 0.02 × 10^−6 cm/s. With `NC[C@H]1O[C@H](O[C@H]2[C@H](O)[C@@H](O[C@H]3O[C@H](CO)[C@@H](O)[C@H](N)[C@H]3O)[C@H](N)C[C@@H]2N)[C@H](N)C[C@@H]1O` [tobramycin], the apparent permeability (Papp) in data set [1] was less than 5e-08 cm/s.

On to `O=C1OC2(c3ccc(O)cc3Oc3cc(O)ccc32)c2ccccc21` [fluorescein], for which the “fluorescein permeation across Calu-3 monolayer” value in data set [2] is listed as “no fluorescein permeation was detected”.

For colistin, the Papp in data set [1] was 0.04 ± 0.02 × 10^−6 cm/s.
